Test results taken from PubChem BioAssay (NCI).
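These data come from cells grown in 96-well plates and exposed to compound for 48 hours at five concentrations. Abbreviation: GI50, concentration required for 50% inhibition of growth. TGI is the concentration that stops growth completely.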

Columns and labels:
Test in all cases: NCI-60 cell line screen, 48 h
OVCAR-8 ovarian = tested on: OVCAR-8 ovarian
NCI-H522 lung = tested on: NCI-H522 lung
HCT-116 colon = tested on: HCT-116 colon
TK-10 renal = tested on: TK-10 renal
MALME-3M melanoma = tested on: MALME-3M melanoma
SW-620 colon = tested on: SW-620 colon
SK-MEL-5 melanoma = tested on: SK-MEL-5 melanoma
CAKI-1 renal = tested on: CAKI-1 renal
U251 CNS = tested on: U251 CNS
MDA-MB-435 = tested on: MDA-MB-435
RPMI-8226 leukemia = tested on: RPMI-8226 leukemia
COLO 205 colon = tested on: COLO 205 colon
HS 578T breast = tested on: HS 578T breast
786-0 renal = tested on: 786-0 renal
SF-268 CNS = tested on: SF-268 CNS
M14 melanoma = tested on: M14 melanoma
A549 NSCLC = tested on: A549 NSCLC
HOP-92 NSCLC = tested on: HOP-92 NSCLC
UACC-257 melanoma = tested on: UACC-257 melanoma
KM12 colon = tested on: KM12 colon
HCT-15 colon = tested on: HCT-15 colon
MOLT-4 leukemia = tested on: MOLT-4 leukemia
OVCAR-5 ovarian = tested on: OVCAR-5 ovarian
HL-60(TB) leukemia = tested on: HL-60(TB) leukemia
SR leukemia = tested on: SR leukemia
RXF 393 renal = tested on: RXF 393 renal
MCF7 breast = tested on: MCF7 breast
IGROV1 ovarian = tested on: IGROV1 ovarian
SF-539 CNS = tested on: SF-539 CNS
SF-295 CNS = tested on: SF-295 CNS
HT29 colon = tested on: HT29 colon
SK-MEL-2 melanoma = tested on: SK-MEL-2 melanoma
MDA-MB-231 breast = tested on: MDA-MB-231 breast
NCI-H23 lung = tested on: NCI-H23 lung
UACC-62 melanoma = tested on: UACC-62 melanoma
NCI/ADR-RES ovarian = tested on: NCI/ADR-RES ovarian
SNB-75 CNS = tested on: SNB-75 CNS
ACHN renal = tested on: ACHN renal
UO-31 renal = tested on: UO-31 renal
CCRF-CEM leukemia = tested on: CCRF-CEM leukemia
T-47D breast = tested on: T-47D breast
OVCAR-3 ovarian = tested on: OVCAR-3 ovarian
NCI-H226 lung = tested on: NCI-H226 lung
DU-145 prostate = tested on: DU-145 prostate
EKVX NSCLC = tested on: EKVX NSCLC
A498 renal = tested on: A498 renal
SN12C renal = tested on: SN12C renal
SK-OV-3 ovarian = tested on: SK-OV-3 ovarian
SK-MEL-28 melanoma = tested on: SK-MEL-28 melanoma
OVCAR-4 ovarian = tested on: OVCAR-4 ovarian
BT-549 breast = tested on: BT-549 breast
NCI-H460 lung = tested on: NCI-H460 lung
LOX IMVI melanoma = tested on: LOX IMVI melanoma
HOP-62 NSCLC = tested on: HOP-62 NSCLC
HCC-2998 colon = tested on: HCC-2998 colon
PC-3 prostate = tested on: PC-3 prostate
SNB-19 CNS = tested on: SNB-19 CNS
K-562 leukemia = tested on: K-562 leukemia

With `Cc1cc(C(NC(=O)CCCCCNc2cccc3c2C(=O)N(C2CCC(=O)NC2=O)C3=O)c2cccnc2)c(O)c2ncccc12` (stereo not drawn) the GI50 (OVCAR-8 ovarian) was < 16.3 nM, the TGI (OVCAR-8 ovarian) was 8330 nM and the GI50 (NCI-H522 lung) was 639 nM. The GI50 (HCT-116 colon) was 1520 nM, the TGI (HCT-116 colon) was > 100000 nM and the GI50 (TK-10 renal) was 413 nM. For the same compound, the TGI (TK-10 renal) was > 100000 nM, the GI50 (MALME-3M melanoma) was < 10 nM and the TGI (MALME-3M melanoma) was 22.4 nM. The GI50 (SW-620 colon) was 21 nM, the TGI (SW-620 colon) was > 100000 nM and the GI50 (SK-MEL-5 melanoma) was 52.5 nM. The TGI (SK-MEL-5 melanoma) was 999 nM, the GI50 (CAKI-1 renal) was 471 nM and the TGI (CAKI-1 renal) was 16700 nM. The GI50 (U251 CNS) was 641 nM, the TGI (U251 CNS) was > 100000 nM and the GI50 (MDA-MB-435) was 2350 nM. For the same compound, the TGI (MDA-MB-435) was > 100000 nM, the GI50 (RPMI-8226 leukemia) was 1350 nM and the TGI (RPMI-8226 leukemia) was > 100000 nM. For the same compound, the GI50 (COLO 205 colon) was 28.8 nM, the TGI (COLO 205 colon) was 1670 nM and the GI50 (HS 578T breast) was 18.4 nM. It also gave a TGI (HS 578T breast) of 7090 nM, a GI50 (786-0 renal) of 164 nM and a TGI (786-0 renal) of 14700 nM. It also gave a GI50 (SF-268 CNS) of 112 nM, a TGI (SF-268 CNS) of 18800 nM and a GI50 (M14 melanoma) of 100 nM. For the same compound, the TGI (M14 melanoma) was 4990 nM, the GI50 (A549 NSCLC) was 734 nM and the TGI (A549 NSCLC) was 28000 nM. For the same compound, the GI50 (HOP-92 NSCLC) was < 12.1 nM, the TGI (HOP-92 NSCLC) was 304 nM and the GI50 (UACC-257 melanoma) was 2090 nM. For the same compound, the TGI (UACC-257 melanoma) was > 27600 nM, the GI50 (KM12 colon) was 199 nM and the TGI (KM12 colon) was 21300 nM. For the same compound, the GI50 (HCT-15 colon) was 228 nM, the TGI (HCT-15 colon) was > 100000 nM and the GI50 (MOLT-4 leukemia) was < 10 nM. For the same compound, the TGI (MOLT-4 leukemia) was 156 nM, the GI50 (OVCAR-5 ovarian) was 637 nM and the TGI (OVCAR-5 ovarian) was > 100000 nM. The GI50 (HL-60(TB) leukemia) was < 13.4 nM, the TGI (HL-60(TB) leukemia) was 35.5 nM and the GI50 (SR leukemia) was 433 nM. For the same compound, the TGI (SR leukemia) was > 54200 nM, the GI50 (RXF 393 renal) was 221 nM and the TGI (RXF 393 renal) was 2280 nM. The GI50 (MCF7 breast) was 62.5 nM, the TGI (MCF7 breast) was 14000 nM and the GI50 (IGROV1 ovarian) was 27.2 nM. It also gave a TGI (IGROV1 ovarian) of 3800 nM, a GI50 (SF-539 CNS) of 933 nM and a TGI (SF-539 CNS) of 8950 nM. The GI50 (SF-295 CNS) was 291 nM, the TGI (SF-295 CNS) was 8140 nM and the GI50 (HT29 colon) was 446 nM. For the same compound, the TGI (HT29 colon) was > 100000 nM, the GI50 (SK-MEL-2 melanoma) was 485 nM and the TGI (SK-MEL-2 melanoma) was 11400 nM. The GI50 (MDA-MB-231 breast) was 13.6 nM, the TGI (MDA-MB-231 breast) was 193 nM and the GI50 (NCI-H23 lung) was 1800 nM. The TGI (NCI-H23 lung) was 43800 nM, the GI50 (UACC-62 melanoma) was 1810 nM and the TGI (UACC-62 melanoma) was 6350 nM. For the same compound, the GI50 (NCI/ADR-RES ovarian) was 13400 nM, the TGI (NCI/ADR-RES ovarian) was > 100000 nM and the GI50 (SNB-75 CNS) was 20.8 nM. For the same compound, the TGI (SNB-75 CNS) was 5320 nM, the GI50 (ACHN renal) was 3580 nM and the TGI (ACHN renal) was > 59500 nM. The GI50 (UO-31 renal) was 362 nM, the TGI (UO-31 renal) was 34400 nM and the GI50 (CCRF-CEM leukemia) was < 10 nM. The TGI (CCRF-CEM leukemia) was > 100000 nM, the GI50 (T-47D breast) was 10.3 nM and the TGI (T-47D breast) was 5120 nM. For the same compound, the GI50 (OVCAR-3 ovarian) was 252 nM, the TGI (OVCAR-3 ovarian) was 15600 nM and the GI50 (NCI-H226 lung) was 32.4 nM. For the same compound, the TGI (NCI-H226 lung) was 961 nM, the GI50 (DU-145 prostate) was 1920 nM and the TGI (DU-145 prostate) was > 100000 nM. The GI50 (EKVX NSCLC) was 809 nM, the TGI (EKVX NSCLC) was > 22500 nM and the GI50 (A498 renal) was 202 nM. The TGI (A498 renal) was 6520 nM, the GI50 (SN12C renal) was 50.1 nM and the GI50 (SK-OV-3 ovarian) was 222 nM. The TGI (SK-OV-3 ovarian) was 3920 nM, the GI50 (SK-MEL-28 melanoma) was 904 nM and the TGI (SK-MEL-28 melanoma) was > 74900 nM. The GI50 (OVCAR-4 ovarian) was 22.1 nM, the TGI (OVCAR-4 ovarian) was 325 nM and the GI50 (BT-549 breast) was < 12.8 nM. The TGI (BT-549 breast) was 39.2 nM, the GI50 (NCI-H460 lung) was 1510 nM and the TGI (NCI-H460 lung) was 28100 nM. The GI50 (LOX IMVI melanoma) was 856 nM, the TGI (LOX IMVI melanoma) was 12400 nM and the GI50 (HOP-62 NSCLC) was 21.4 nM. The TGI (HOP-62 NSCLC) was 685 nM, the GI50 (HCC-2998 colon) was 26.4 nM and the TGI (HCC-2998 colon) was 2450 nM. For the same compound, the GI50 (PC-3 prostate) was 20.7 nM, the GI50 (SNB-19 CNS) was 273 nM and the TGI (SNB-19 CNS) was > 100000 nM. The GI50 (K-562 leukemia) was 1210 nM and the TGI (K-562 leukemia) was > 100000 nM.
